Laboratory results reported in US9944645B2, “Imidazotriazines and imidazopyrimidines as kinase inhibitors” (Incyte Holdings Corporation, priority 2006, dated 2018).

Target: c-Met kinase (h-Met; histidine-tagged c-Met catalytic domain fusion protein) (Homo sapiens (Human), UniProt P08581)
Assay: In Vitro c-Met Kinase Enzyme Assays
Assay type: biochemical
Details: phosphorylation of poly Glu-Tyr, 5 μM ATP, 25 minutes at 30° C.
Method: Compounds were screened in vitro for their ability to inhibit c-Met kinase activity. […] Briefly, histidine-tagged c-Met catalytic domain fusion protein (Invitrogen, #PV3143) was used for the assay. […] The reaction lasted for 25 minutes at 30° C. After the reaction was completed, the contents of the plates was discarded. Plates were then washed with TBS-T (250 μL/well, 5×) and then blocked with TBS-T containing 1% BSA for 2 hours. The contents of the plates was discarded, and 100 μL (per well) of peroxidase-labeled anti-phospho-tyrosine antibody (Sigma, #A5964) diluted (1:60,000) in 1% BSA containing TBS-T were then added and incubated for 1 hour. Plates were washed with TBS-T ([…], 5×) and followed by the color reaction using 100 μL (1:1 mixture) of H2O2 and tetramethylbenzidine (R&D Systems, #DY999). The reaction was stopped in minutes with 100 μL of 2 N H2SO4. The optical density was measured immediately using a microplate reader at 450 nm with wavelength correction at 540 nm. IC50 values were calculated with the GraphPad Prism software. The linear range (i.e., the time period over which the rate remained equivalent to the initial rate) was determined for the kinase and IC50 determinations were performed within this range.

Chain of c-Met kinase (h-Met; histidine-tagged c-Met catalytic domain fusion protein) (P08581 1078-1345): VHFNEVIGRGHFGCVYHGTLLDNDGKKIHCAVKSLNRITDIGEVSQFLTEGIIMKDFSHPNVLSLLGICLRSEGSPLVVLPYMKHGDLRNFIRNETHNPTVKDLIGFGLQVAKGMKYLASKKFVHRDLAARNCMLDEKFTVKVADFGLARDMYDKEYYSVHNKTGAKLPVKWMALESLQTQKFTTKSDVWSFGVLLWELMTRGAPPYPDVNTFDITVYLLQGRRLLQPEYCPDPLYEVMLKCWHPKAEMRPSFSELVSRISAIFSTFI

IC50, < 500 nM:
O=C(c1ccc(-c2cnc3ncc(C4(c5ccc6ncccc6c5)CC4)n3c2)cc1)N1CC[C@H](F)C1 [Example 35, 6-{1-[6-(4-[(3S)-3-Fluoropyrrolidin-1-yl]carbonylphenyl)imidazo[1,2-a]pyrimidin-3-yl]cyclopropyl}quinoline]
COCC1(NC(=O)c2ccc(-c3cnc4ncc(C5(c6ccc7ncccc7c6)CC5)n4c3)cc2)CCC1 [Example 36, N-[1-(Methoxymethyl)cyclobutyl]-4-[3-(1-quinolin-6-ylcyclopropyl)imidazo[1,2-a]pyrimidin-6-yl]benzamide]
O=C(NC1CCN(c2ccccn2)C1)c1ccc(-c2cnc3ncc(C4(c5ccc6ncccc6c5)CC4)n3c2)cc1 (stereo not shown) [Example 37, N-(1-Pyridin-2-ylpyrrolidin-3-yl)-4-[3-(1-quinolin-6-ylcyclopropyl)imidazo[1,2-a]pyrimidin-6-yl]benzamide]
O=C(c1ccc(-c2cnc3ncc(C4(c5ccc6ncccc6c5)CC4)n3c2)cc1)N1CCC(c2ccccn2)C1 (stereo not shown) [Example 38, 6-[1-(6-{4-[(3-Pyridin-2-ylpyrrolidin-1-yl)carbonyl]phenyl}imidazo[1,2-a]pyrimidin-3-yl)cyclopropyl]quinoline]
O=C(c1ccc(-c2cnc3ncc(C4(c5ccc6ncccc6c5)CC4)n3c2)cc1)N1CC[C@H](Oc2ccccn2)C1 [Example 39, 6-{1-[6-(4-[(3S)-3-(Pyridin-2-yloxy)pyrrolidin-1-yl]carbonylphenyl)imidazo[1,2-a]pyrimidin-3-yl]cyclopropyl}quinoline]
O=C(NCCOc1ccccn1)c1ccc(-c2cnc3ncc(C4(c5ccc6ncccc6c5)CC4)n3c2)cc1 [Example 40, N-[2-(Pyridin-2-yloxy)ethyl]-4-[3-(1-quinolin-6-ylcyclopropyl)imidazo[1,2-a]pyrimidin-6-yl]benzamide]
CC(COc1ccccn1)NC(=O)c1ccc(-c2cnc3ncc(C4(c5ccc6ncccc6c5)CC4)n3c2)cc1 (stereo not shown) [Example 41, N-[1-Methyl-2-(pyridin-2-yloxy)ethyl]-4-[3-(1-quinolin-6-ylcyclopropyl)imidazo[1,2-a]pyrimidin-6-yl]benzamide]
O=C(NCCOc1ccccc1)c1ccc(-c2cnc3ncc(C4(c5ccc6ncccc6c5)CC4)n3c2)cc1 [Example 42, N-(2-Phenoxyethyl)-4-[3-(1-quinolin-6-ylcyclopropyl)imidazo[1,2-a]pyrimidin-6-yl]benzamide]
CNC(=O)[C@@H](NC(=O)c1ccc(-c2cnc3ncc(C4(c5ccc6ncccc6c5)CC4)n3c2)cc1)C(C)(C)C [Example 43, N-(1S)-2,2-Dimethyl-1-[(methylamino)carbonyl]propyl-4-[3-(1-quinolin-6-ylcyclopropyl)imidazo[1,2-a]pyrimidin-6-yl]benzamide]
CN(C)C(=O)[C@@H](NC(=O)c1ccc(-c2cnc3ncc(C4(c5ccc6ncccc6c5)CC4)n3c2)cc1)C(C)(C)C [Example 44, N-(1S)-1-[(Dimethylamino)carbonyl]-2,2-dimethylpropyl-4-[3-(1-quinolin-6-ylcyclopropyl)imidazo[1,2-a]pyrimidin-6-yl]benzamide]
CC(C)(C)[C@H](NC(=O)c1ccc(-c2cnc3ncc(C4(c5ccc6ncccc6c5)CC4)n3c2)cc1)C(=O)N1CCC1 [Example 45, N-[(1S)-1-(Azetidin-1-ylcarbonyl)-2,2-dimethylpropyl]-4-[3-(1-quinolin-6-ylcyclopropyl)imidazo[1,2-a]pyrimidin-6-yl]benzamide]
O=C(NC1CC1)c1cccc(-c2cnc3ncc(C4(c5ccc6ncccc6c5)CC4)n3c2)c1 [Example 46, N-Cyclopropyl-3-[3-(1-quinolin-6-ylcyclopropyl)imidazo[1,2-a]pyrimidin-6-yl]benzamide]
O=C(NCc1ccccn1)c1cccc(-c2cnc3ncc(C4(c5ccc6ncccc6c5)CC4)n3c2)c1 [Example 47, N-(Pyridin-2-ylmethyl)-3-[3-(1-quinolin-6-ylcyclopropyl)imidazo[1,2-a]pyrimidin-6-yl]benzamide]
CN(C)C(=O)c1cccc(-c2cnc3ncc(C4(c5ccc6ncccc6c5)CC4)n3c2)c1 [Example 48, N,N-Dimethyl-3-[3-(1-quinolin-6-ylcyclopropyl)imidazo[1,2-a]pyrimidin-6-yl]benzamide]
CNC(=O)c1cccc(-c2cnc3ncc(C4(c5ccc6ncccc6c5)CC4)n3c2)c1 [Example 49, N-Methyl-3-[3-(1-quinolin-6-ylcyclopropyl)imidazo[1,2-a]pyrimidin-6-yl]benzamide]
CNC(=O)[C@H](C)NC(=O)c1ccc(-c2cnc3ncc(C4(c5ccc6ncccc6c5)CC4)n3c2)cc1 [Example 50, N-[(1S)-1-Methyl-2-(methylamino)-2-oxoethyl]-4-[3-(1-quinolin-6-ylcyclopropyl)imidazo[1,2-a]pyrimidin-6-yl]benzamide]
CNC(=O)[C@@H](C)NC(=O)c1ccc(-c2cnc3ncc(C4(c5ccc6ncccc6c5)CC4)n3c2)cc1 [Example 51, N-[(1R)-1-Methyl-2-(methylamino)-2-oxoethyl]-4-[3-(1-quinolin-6-ylcyclopropyl)imidazo[1,2-a]pyrimidin-6-yl]benzamide]
COC(=O)N1CCN(c2ccc(-c3cnc4ncc(C5(c6ccc7ncccc7c6)CC5)n4c3)cn2)CC1 [Example 53, Methyl 4-{5-[3-(1-quinolin-6-ylcyclopropyl)imidazo[1,2-a]pyrimidin-6-yl]pyridin-2-yl}piperazine-1-carboxylate]
CS(=O)(=O)N1CCN(c2ccc(-c3cnc4ncc(C5(c6ccc7ncccc7c6)CC5)n4c3)cn2)CC1 [Example 54, 6-[1-(6-{6-[4-(Methylsulfonyl)piperazin-1-yl]pyridin-3-yl}imidazo[1,2-a]pyrimidin-3-yl)cyclopropyl]quinoline]
CN(C)C(=O)N1CCN(c2ccc(-c3cnc4ncc(C5(c6ccc7ncccc7c6)CC5)n4c3)cn2)CC1 [Example 55, N,N-Dimethyl-4-{5-[3-(1-quinolin-6-ylcyclopropyl)imidazo[1,2-a]pyrimidin-6-yl]pyridin-2-yl}piperazine-1-carboxamide]
CC(C)[C@H](NC(=O)c1ccc(-c2cnc3ncc(C4(c5ccc6ncccc6c5)CC4)n3c2)cc1)C(=O)N(C)C [Example 56, N-(1S)-1-[(Dimethylamino)carbonyl]-2-methylpropyl-4-[3-(1-quinolin-6-ylcyclopropyl)imidazo[1,2-a]pyrimidin-6-yl]benzamide]
CN(C)C(=O)C1(NC(=O)c2ccc(-c3cnc4ncc(C5(c6ccc7ncccc7c6)CC5)n4c3)cc2)CCC1 [Example 57, N-1-[(Dimethylamino)carbonyl]cyclobutyl-4-[3-(1-quinolin-6-ylcyclopropyl)imidazo[1,2-a]pyrimidin-6-yl]benzamide]
CC(C)(C)[C@H](NC(=O)c1ccc(-c2cnc3ncc(C4(c5ccc6ncccc6c5)CC4)n3c2)cn1)C(=O)N1CCC1 [Example 58, N-[(1S)-1-(Azetidin-1-ylcarbonyl)-2,2-dimethylpropyl]-5-[3-(1-quinolin-6-ylcyclopropyl)imidazo[1,2-a]pyrimidin-6-yl]pyridine-2-carboxamide]
CNC(=O)[C@@H](NC(=O)c1ccc(-c2cnc3ncc(C4(c5ccc6ncccc6c5)CC4)n3c2)cn1)C(C)(C)C [Example 59, N-(1S)-2,2-Dimethyl-1-[(methylamino)carbonyl]propyl-5-[3-(1-quinolin-6-ylcyclopropyl)imidazo[1,2-a]pyrimidin-6-yl]pyridine-2-carboxamide]
CC(C)(C)[C@H](NC(=O)c1ccc(-c2cnc3ncc(C4(c5ccc6ncccc6c5)CC4)n3c2)cn1)C(=O)NC1CC1 [Example 60, N-(1S)-1-[(Cyclopropylamino)carbonyl]-2,2-dimethylpropyl-5-[3-(1-quinolin-6-ylcyclopropyl)imidazo[1,2-a]pyrimidin-6-yl]pyridine-2-carboxamide]
C[C@H](NC(=O)c1ccc(-c2cnc3ncc(C4(c5ccc6ncccc6c5)CC4)n3c2)cn1)C(=O)N(C)C [Example 61, N-[(1S)-2-(Dimethylamino)-1-methyl-2-oxoethyl]-5-[3-(1-quinolin-6-ylcyclopropyl)imidazo[1,2-a]pyrimidin-6-yl]pyridine-2-carboxamide]
C[C@@H](NC(=O)c1ccc(-c2cnc3ncc(C4(c5ccc6ncccc6c5)CC4)n3c2)cn1)C(=O)N(C)C [Example 62, N-[(1R)-2-(Dimethylamino)-1-methyl-2-oxoethyl]-5-[3-(1-quinolin-6-ylcyclopropyl)imidazo[1,2-a]pyrimidin-6-yl]pyridine-2-carboxamide]
O=C(COc1ccc(-c2cnc3ncc(C4(c5ccc6ncccc6c5)CC4)n3c2)cc1)N1CCCC1 [Example 63, 6-(1-{6-[4-(2-Oxo-2-pyrrolidin-1-ylethoxy)phenyl]imidazo[1,2-a]pyrimidin-3-yl}cyclopropyl)quinoline]
